Measurements as given in PMC9234961 (Journal of Medicinal Chemistry, 2022).
Where two headings read alike, the source gives them in different places.

Columns and labels:
kinases (468) [1] = target: kinases (468) (Homo sapiens, UniProt P42336); settings: PIK3CA; 1000 nM
kinases (468) [2] = target: kinases (468) (Homo sapiens, UniProt Q6DT37); settings: DMPK2 (CDC42BPG); 1000 nM
kinases (468) [3] = target: kinases (468) (Homo sapiens, UniProt Q9H422); settings: HIPK3; 1000 nM
kinases (468) [4] = target: kinases (468) (Homo sapiens, UniProt Q9BWU1); settings: CDK11 (CDK19); 1000 nM
kinases (468) [5] = target: kinases (468) (Homo sapiens, UniProt Q9BYT3); settings: kinase STK33 (Entrez STK33); compound concentration 1000 nM
kinases (468) [6] = target: kinases (468) (Homo sapiens, UniProt Q8NE63); settings: HIPK4; 1000 nM
kinases (468) (Homo sapiens, UniProt Q8NE63), sequence (Q8NE63 whole entry): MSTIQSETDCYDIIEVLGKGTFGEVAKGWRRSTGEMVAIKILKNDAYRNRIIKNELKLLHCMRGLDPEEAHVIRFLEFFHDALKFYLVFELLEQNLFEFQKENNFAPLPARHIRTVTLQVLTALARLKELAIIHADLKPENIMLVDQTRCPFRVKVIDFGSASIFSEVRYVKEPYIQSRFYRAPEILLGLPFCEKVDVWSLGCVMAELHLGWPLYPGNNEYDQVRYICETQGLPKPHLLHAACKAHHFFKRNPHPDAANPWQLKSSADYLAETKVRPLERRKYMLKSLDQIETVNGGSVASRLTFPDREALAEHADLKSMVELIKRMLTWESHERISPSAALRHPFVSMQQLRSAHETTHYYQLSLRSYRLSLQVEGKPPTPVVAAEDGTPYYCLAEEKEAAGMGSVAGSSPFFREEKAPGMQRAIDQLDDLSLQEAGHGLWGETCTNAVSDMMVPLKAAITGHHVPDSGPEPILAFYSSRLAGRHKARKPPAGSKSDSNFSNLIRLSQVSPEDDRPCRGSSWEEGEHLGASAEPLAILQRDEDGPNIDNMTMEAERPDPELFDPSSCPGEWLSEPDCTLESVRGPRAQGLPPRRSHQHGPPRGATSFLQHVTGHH

kinases (468) [7] = target: kinases (468) (Homo sapiens, UniProt Q96L34); settings: MARK4; 1000 nM
kinases (468) [8] = target: kinases (468) (Homo sapiens, UniProt P37023); settings: ACVRL1; 1000 nM
kinases (468) [9] = target: kinases (468) (Homo sapiens, UniProt Q8IY84); settings: NIM1 (MGC42105); 1000 nM
kinases (468) [10] = target: kinases (468) (Homo sapiens, UniProt P21860); settings: ERBB3; 1000 nM
kinases (468) [11] = target: kinases (468) (Homo sapiens, UniProt Q09013); settings: DMPK; 1000 nM
kinases (468) [12] = target: kinases (468) (Homo sapiens, UniProt P36896); settings: ACVR1B; 1000 nM
kinases (468) [13] = target: kinases (468) (Homo sapiens, UniProt O00444); settings: PLK4; 1000 nM
kinases (468) [14] = target: kinases (468) (Homo sapiens, UniProt P78362); settings: kinase SRPK2 (Entrez SRPK2); compound concentration 1000 nM
kinases (468) [15] = target: kinases (468) (Homo sapiens, UniProt Q9BQI3); settings: EIF2AK1; 1000 nM
kinases (468) [16] = target: kinases (468) (Homo sapiens, UniProt P04626); settings: ERBB2; 1000 nM
kinases (468) [17] = target: kinases (468) (Homo sapiens, UniProt Q13237); settings: PRKG2; 1000 nM
kinases (468) [18] = target: kinases (468) (Homo sapiens, UniProt Q9UM73, L1196M); settings: ALK(L1196M); 1000 nM
kinases (468) [19] = target: kinases (468) (Homo sapiens, UniProt P24723); settings: PRKCH; 1000 nM
kinases (468) [20] = target: kinases (468) (Homo sapiens, UniProt O15075); settings: DCAMKL1 (DCLK1); 1000 nM
kinases (468) [21] = target: kinases (468) (Homo sapiens, UniProt P53355); settings: DAPK1; 1000 nM
kinases (468) (Homo sapiens, UniProt P53355), sequence (P53355 whole entry): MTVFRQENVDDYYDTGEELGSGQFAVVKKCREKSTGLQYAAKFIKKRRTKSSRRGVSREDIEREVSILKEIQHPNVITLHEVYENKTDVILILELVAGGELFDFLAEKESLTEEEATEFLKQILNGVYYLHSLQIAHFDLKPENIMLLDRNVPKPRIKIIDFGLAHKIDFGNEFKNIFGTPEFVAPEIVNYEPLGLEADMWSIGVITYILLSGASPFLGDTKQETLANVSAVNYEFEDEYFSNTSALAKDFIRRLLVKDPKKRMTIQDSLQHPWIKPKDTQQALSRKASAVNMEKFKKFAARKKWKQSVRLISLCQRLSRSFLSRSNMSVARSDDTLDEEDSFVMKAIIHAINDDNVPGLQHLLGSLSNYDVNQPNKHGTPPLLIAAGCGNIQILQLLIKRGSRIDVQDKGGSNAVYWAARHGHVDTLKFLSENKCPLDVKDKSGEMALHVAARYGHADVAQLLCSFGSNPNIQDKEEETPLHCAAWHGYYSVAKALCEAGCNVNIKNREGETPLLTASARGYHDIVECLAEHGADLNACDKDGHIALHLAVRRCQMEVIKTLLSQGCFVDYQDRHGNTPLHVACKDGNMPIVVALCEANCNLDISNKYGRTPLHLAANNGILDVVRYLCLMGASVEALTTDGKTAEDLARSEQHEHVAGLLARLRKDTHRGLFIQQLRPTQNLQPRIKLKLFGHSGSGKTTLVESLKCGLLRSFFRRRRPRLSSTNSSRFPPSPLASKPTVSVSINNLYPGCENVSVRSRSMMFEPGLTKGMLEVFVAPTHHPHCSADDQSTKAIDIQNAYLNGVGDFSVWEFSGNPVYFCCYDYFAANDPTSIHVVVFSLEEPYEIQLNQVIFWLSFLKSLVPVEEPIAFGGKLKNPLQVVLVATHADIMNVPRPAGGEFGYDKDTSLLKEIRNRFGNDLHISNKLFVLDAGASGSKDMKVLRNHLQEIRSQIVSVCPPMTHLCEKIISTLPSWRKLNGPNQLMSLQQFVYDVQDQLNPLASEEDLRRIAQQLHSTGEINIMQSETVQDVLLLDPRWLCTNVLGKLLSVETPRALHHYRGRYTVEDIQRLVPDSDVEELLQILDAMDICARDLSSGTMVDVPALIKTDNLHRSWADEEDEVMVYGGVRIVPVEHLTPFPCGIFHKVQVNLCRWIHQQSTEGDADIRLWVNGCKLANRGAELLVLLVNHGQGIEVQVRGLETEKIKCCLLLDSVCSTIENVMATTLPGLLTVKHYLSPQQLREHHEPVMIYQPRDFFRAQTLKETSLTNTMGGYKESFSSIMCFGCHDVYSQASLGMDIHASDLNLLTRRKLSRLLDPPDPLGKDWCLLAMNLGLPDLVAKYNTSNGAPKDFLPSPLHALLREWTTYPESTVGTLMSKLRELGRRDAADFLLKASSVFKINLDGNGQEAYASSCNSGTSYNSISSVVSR

kinases (468) [22] = target: kinases (468) (Homo sapiens, UniProt P10721, D816H); settings: KIT(D816H); 1000 nM
kinases (468) [23] = target: kinases (468) (Homo sapiens, UniProt Q9BZL6); settings: PRKD2; 1000 nM
kinases (468) [24] = target: kinases (468) (Homo sapiens, UniProt Q13976); settings: PRKG1; 1000 nM
kinases (468) [25] = target: kinases (468) (Homo sapiens, UniProt Q9UKE5); settings: kinase TNIK (Entrez TNIK); compound concentration 1000 nM
kinases (468) [26] = target: kinases (468) (Homo sapiens, UniProt P54756); settings: EPHA5; 1000 nM
kinases (468) [27] = target: kinases (468) (Homo sapiens, UniProt P48736); settings: PIK3CG; 1000 nM
kinases (468) [28] = target: kinases (468) (Homo sapiens, UniProt P51617); settings: IRAK1; 1000 nM
kinases (468) [29] = target: kinases (468) (Homo sapiens, UniProt Q96PY6); settings: NEK1; 1000 nM
kinases (468) [30] = target: kinases (468) (Homo sapiens, UniProt P00519, F317L); settings: 1000 nM
kinases (468) (Homo sapiens, UniProt P00519, F317L), sequence (P00519 whole entry F317L): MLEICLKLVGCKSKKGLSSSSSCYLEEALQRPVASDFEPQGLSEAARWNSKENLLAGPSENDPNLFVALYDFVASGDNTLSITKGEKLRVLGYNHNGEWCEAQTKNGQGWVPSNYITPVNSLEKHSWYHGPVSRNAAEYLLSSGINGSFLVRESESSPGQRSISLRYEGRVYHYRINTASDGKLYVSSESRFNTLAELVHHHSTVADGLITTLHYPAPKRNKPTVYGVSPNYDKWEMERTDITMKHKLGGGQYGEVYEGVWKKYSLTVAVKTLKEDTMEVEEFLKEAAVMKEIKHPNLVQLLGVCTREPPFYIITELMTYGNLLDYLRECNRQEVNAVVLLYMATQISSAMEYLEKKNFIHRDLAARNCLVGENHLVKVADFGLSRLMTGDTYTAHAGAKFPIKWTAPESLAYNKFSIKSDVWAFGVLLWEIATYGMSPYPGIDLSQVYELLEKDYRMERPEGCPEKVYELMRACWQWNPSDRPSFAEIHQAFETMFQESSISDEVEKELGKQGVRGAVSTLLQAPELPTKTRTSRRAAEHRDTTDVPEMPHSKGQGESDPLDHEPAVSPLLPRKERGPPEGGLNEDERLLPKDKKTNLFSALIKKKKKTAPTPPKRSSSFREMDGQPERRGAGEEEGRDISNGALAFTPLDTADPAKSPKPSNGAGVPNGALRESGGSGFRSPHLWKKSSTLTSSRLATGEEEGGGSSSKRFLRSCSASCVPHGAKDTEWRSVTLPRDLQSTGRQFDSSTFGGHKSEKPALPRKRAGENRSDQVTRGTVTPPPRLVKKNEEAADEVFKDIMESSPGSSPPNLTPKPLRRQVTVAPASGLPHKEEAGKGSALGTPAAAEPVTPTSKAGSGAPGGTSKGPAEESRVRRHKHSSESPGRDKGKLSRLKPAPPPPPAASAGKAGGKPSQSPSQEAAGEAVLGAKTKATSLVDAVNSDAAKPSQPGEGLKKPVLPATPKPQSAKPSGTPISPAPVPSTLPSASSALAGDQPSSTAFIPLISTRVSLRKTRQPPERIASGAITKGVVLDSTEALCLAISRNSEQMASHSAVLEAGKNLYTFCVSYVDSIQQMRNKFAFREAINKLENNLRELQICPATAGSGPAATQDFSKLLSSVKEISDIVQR

kinases (468) [31] = target: kinases (468) (Homo sapiens, UniProt Q13555); settings: CAMK2G; 1000 nM
kinases (468) [32] = target: kinases (468) (Homo sapiens, UniProt Q02750); settings: MEK1 (MAP2K1); 1000 nM
kinases (468) (Homo sapiens, UniProt Q02750), sequence (Q02750 whole entry): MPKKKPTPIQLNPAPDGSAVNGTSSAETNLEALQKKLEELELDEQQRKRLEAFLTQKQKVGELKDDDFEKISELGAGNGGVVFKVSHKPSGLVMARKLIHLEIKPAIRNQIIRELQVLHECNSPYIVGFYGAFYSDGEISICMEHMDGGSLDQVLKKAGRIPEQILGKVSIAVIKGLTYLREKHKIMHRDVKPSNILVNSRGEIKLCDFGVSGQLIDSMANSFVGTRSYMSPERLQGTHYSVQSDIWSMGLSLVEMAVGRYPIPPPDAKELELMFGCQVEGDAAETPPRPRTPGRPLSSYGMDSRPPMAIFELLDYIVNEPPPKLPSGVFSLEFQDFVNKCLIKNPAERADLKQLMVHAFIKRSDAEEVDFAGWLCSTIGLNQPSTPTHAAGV

kinases (468) [33] = target: kinases (468) (Homo sapiens, UniProt P54753); settings: EPHB3; 1000 nM
kinases (468) [34] = target: kinases (468) (Homo sapiens, UniProt Q9P286); settings: PAK7; 1000 nM
kinases (468) [35] = target: kinases (468) (Homo sapiens, UniProt P04049); settings: RAF1; 1000 nM

kinases (468) (Homo sapiens, UniProt Q6DT37), sequence (Q6DT37 whole entry): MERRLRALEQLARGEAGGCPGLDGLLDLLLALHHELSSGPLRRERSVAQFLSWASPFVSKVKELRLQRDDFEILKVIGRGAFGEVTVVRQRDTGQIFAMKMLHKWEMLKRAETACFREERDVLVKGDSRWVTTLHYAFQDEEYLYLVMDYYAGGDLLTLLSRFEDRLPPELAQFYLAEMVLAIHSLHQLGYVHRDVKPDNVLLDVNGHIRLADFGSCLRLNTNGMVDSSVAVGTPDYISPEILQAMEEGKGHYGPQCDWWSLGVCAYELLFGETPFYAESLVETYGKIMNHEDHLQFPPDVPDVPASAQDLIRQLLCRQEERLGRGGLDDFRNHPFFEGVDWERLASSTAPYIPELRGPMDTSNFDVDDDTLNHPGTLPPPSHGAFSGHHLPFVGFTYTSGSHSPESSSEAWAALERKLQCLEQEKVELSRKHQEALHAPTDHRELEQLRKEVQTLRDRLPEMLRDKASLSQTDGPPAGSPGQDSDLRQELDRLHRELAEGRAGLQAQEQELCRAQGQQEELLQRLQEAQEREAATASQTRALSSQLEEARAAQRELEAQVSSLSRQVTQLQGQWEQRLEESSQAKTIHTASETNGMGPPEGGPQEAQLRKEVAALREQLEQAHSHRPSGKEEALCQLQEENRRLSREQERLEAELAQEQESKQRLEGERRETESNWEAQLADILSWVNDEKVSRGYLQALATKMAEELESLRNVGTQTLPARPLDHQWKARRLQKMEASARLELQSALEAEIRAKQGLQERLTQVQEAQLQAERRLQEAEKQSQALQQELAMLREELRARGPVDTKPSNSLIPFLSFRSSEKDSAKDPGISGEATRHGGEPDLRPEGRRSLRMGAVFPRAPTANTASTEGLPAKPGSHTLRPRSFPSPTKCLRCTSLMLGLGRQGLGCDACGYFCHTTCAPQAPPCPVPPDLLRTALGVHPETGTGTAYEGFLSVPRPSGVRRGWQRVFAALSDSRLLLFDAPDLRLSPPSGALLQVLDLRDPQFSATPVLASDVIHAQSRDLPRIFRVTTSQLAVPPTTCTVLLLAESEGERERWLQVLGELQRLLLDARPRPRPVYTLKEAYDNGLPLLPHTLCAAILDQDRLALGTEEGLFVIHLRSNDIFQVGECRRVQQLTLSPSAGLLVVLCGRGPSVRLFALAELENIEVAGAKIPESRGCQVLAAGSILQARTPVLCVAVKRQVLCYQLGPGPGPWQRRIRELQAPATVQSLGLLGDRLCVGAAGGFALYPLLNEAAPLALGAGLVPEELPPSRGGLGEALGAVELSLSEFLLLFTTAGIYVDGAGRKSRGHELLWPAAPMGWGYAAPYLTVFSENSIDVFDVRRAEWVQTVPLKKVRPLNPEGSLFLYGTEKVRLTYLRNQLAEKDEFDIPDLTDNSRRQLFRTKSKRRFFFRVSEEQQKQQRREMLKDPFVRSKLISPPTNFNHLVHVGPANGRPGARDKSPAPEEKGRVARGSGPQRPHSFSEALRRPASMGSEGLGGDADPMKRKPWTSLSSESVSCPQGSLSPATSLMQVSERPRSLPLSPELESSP

Structure (SMILES): C[C@H]1C[C@@H](O)CN(c2ncc(Cl)c(Nc3ccc4c(c3)c3c(c(=O)n4C)OCC(F)(F)[C@H](C4CC4)N3)n2)C1 [CCT373566_9A]
- Percent Control (kinases (468) [1]): 100%
- Percent Control (kinases (468) [2]): 100%
- Percent Control (kinases (468) [3]): 100%
- Percent Control (kinases (468) [4]): 99%
- Percent Control (kinases (468) [5]): 100%
- Percent Control (kinases (468) [6]): 96%
- Percent Control (kinases (468) [7]): 100%
- Percent Control (kinases (468) [8]): 96%
- Percent Control (kinases (468) [9]): 90%
- Percent Control (kinases (468) [10]): 85%
- Percent Control (kinases (468) [11]): 98%
- Percent Control (kinases (468) [12]): 100%
- Percent Control (kinases (468) [13]): 100%
- Percent Control (kinases (468) [14]): 100%
- Percent Control (kinases (468) [15]): 72%
- Percent Control (kinases (468) [16]): 94%
- Percent Control (kinases (468) [17]): 100%
- Percent Control (kinases (468) [18]): 97%
- Percent Control (kinases (468) [19]): 94%
- Percent Control (kinases (468) [20]): 100%
- Percent Control (kinases (468) [21]): 83%
- Percent Control (kinases (468) [22]): 87%
- Percent Control (kinases (468) [23]): 94%
- Percent Control (kinases (468) [24]): 96%
- Percent Control (kinases (468) [25]): 94%
- Percent Control (kinases (468) [26]): 98%
- Percent Control (kinases (468) [27]): 98%
- Percent Control (kinases (468) [28]): 77%
- Percent Control (kinases (468) [29]): 98%
- Percent Control (kinases (468) [30]; ABL1(F317L)-nonphosphorylated): 100%
- Percent Control (kinases (468) [30]; ABL1(F317L)-phosphorylated): 93%
- Percent Control (kinases (468) [31]): 96%
- Percent Control (kinases (468) [32]): 90%
- Percent Control (kinases (468) [33]): 100%
- Percent Control (kinases (468) [34]): 96%
- Percent Control (kinases (468) [35]): 92%
